The test system of assay [1] is MRSA colonization in the nares. The experiment in a line: Human study Part One: nasal colonization of MRSA, NOVEON laser alone, with H2O2 or with topical erythromycin. The assay is classed as in vivo, Staphylococcus aureus. The conditions noted are these: for MRSA Average: per patient, mean of triplicate plates, all arms with NOVEON laser. The procedure:
(§1) This investigational protocol was an open-label study of subjects who are colonized with MRSA in the nares (nostril). The study was done in two parts.
(§2) In this human study, three arms were produced. […] This was done on day 1 and again on day three; and Arm #3: ⅓ of the subjects were treated with the laser and then a topical antibiotic three times a day for five days. Prior to enrollment in this study, prospective subjects met all of the following criteria: age≧18 years and ≦70 years of age; previous positive MRSA culture; negative urine pregnancy test or post-menopausal for one year; willing to comply with study requirements, including return visits and self-application of topical antibiotics; and willing to provide informed consent to participate. Prospective subjects were excluded from this study if any of the following criteria were met: pregnancy; patients who are severely immunocompromised (such as may occur in AIDS, renal transplant regimens, immunosuppressed states consequent to malignancy or agents used in rendering oncologic care, or who suffer from end stage renal disease); diabetic patients; allergy to antimicrobials being used in the study (group 3).
(§3) All participants underwent an initial quantitative assessment for nasal carriage of S. aureus, during their first visit. Each participant had the anterior nares (each nostril) sampled for culture with a circular movement (three rotations on each side) of a sterile wood applicator plain Rayon® tipped swab in each nostril and placed in a labeled tube. 2 ml of room temp phosphate buffered saline was placed in the tube after the removal of the swab (to completely cover the swab in the tube). Each swab was then placed back in the tube and the tube was then vortexed for 15 seconds to disperse isolates of MRSA and/or MSSA into the PBS solution. Aliquots of PBS from the tube were plated in the following manner: 100 μl from each tube was lawn plated in triplicate (3×) on selective Chromogenic MRSA And MSSA agar. Plates were placed in incubator within 30 minutes of the plating procedure, and colonies were counted manually, and recorded 18 hrs after plating.
(§4) On day one of the study, all subjects underwent this exact procedure in arms 1 and 2 of the study two minutes before the laser procedure. They again were sampled in the same manner 2 minutes after the laser procedure. In the third arm of the study, they were swabbed two minutes before the procedure and the first antibiotic administration was completed after the laser therapy. The post/laser swab sample was taken for this arm 20 min later.
(§5) On day three of the study, all subjects from arms one two and three underwent the exact same procedures as day 1 of the study.
(§6) On day five all subjects from all arms underwent just one swabbing per nostril with the exact same sampling procedure one time.
(§7) 3% OTC hydrogen peroxide was applied to a cotton pledget for application to the subject prior to irradiation. This was inserted in the nose for 120 seconds and then removed. The subjects were then given doses of phototherapeutic near infrared radiation as described.
(§8) The subjects were first given doses of phototherapeutic near infrared radiation as described. […] The swab was inserted approximately 1 cm in to the anterior nares and rotated 360 degrees several times and removed. Patients were instructed to perform the exact application procedure 3 times a day for the remaining 5 days.
(§9) The NOVEON™ laser was used for two (2) six-minute treatments in each nostril on day (1) and day (3) of the study.
(§10) The laser was calibrated before the first treatment of the day. Intermittent temperature testing of the treatment site was performed on each subject using a noncontact infrared thermometer (Raytek Minitemp), 30-60 second intervals. If a temperature of 110 F degrees was reached, or the patient complained of pain, the laser treatment was interrupted and only resumed when the patient was comfortable.

Assay [2] relates to MSSA colonies in the nares. The experiment in a line: Human study Part One: nasal colonization of MSSA, NOVEON laser alone, with H2O2 or with topical erythromycin. The assay is classed as in vivo, Staphylococcus aureus. As to conditions: per patient, mean of triplicate plates, all arms with NOVEON laser. The procedure: as §1, §2, §3, §4, §5, §6, §7, §8, §9, §10
Assay [3] concerns MRSA. The experiment in a line: MRSA CFU counts on agar with trimethoprim or erythromycin after sub-lethal NIMELS laser (Example VIII). The assay is classed as cell-based, Staphylococcus aureus. As to conditions: plates B-4 1 to 5. The source says: The following illustrates the general antibacterial methods according to the invention, using a MRSA model for the in vitro Experiments V and VIII-XII.
a) μ1 is sub-lethal dosimetry from the NIMEL laser system on MRSA as a control and;

For assay [4], the system named is MRSA. The experiment in a line: MRSA/antimicrobial potentiation Experiment 4: CFU with or without methicillin, penicillin G or erythromycin, groups A4 to F4. As to conditions: for Laser Effect (+Drug): ratio of AVG Exp with drug to Cont with drug; for Drug Effect / Fold increase in antibiotic sensitivity: 0.5 μg/ml penicillin G; for Drug Effect: ratio of AVG with drug to without drug; for AVG (CFU) / CFU/ml / CFU: agar with 0.5 μg/ml penicillin G. The assay is classed as cell-based, Staphylococcus aureus.
Procedure: Two different laser dosages based on an effective dose established in previous experiments were used to treat a saline-suspension of logarithmically growing MRSA, labeled A4 to F4.
After 24 hrs of growth at 37° C. colonies were counted.

Setting [5] is: Initial Analysis, Post-treatment swab, left nostril.
Where [6] appears, read: Initial Analysis, Post-treatment swab, right nostril.
Where [7] appears, read: Initial Analysis, Pre swab, left nostril.
The mark [8] stands for this setting: Initial Analysis, Pre swab, right nostril.
The mark [9] stands for this setting: Second Analysis, Post-treatment swab, left nostril.
The mark [10] stands for this setting: Second Analysis, Post-treatment swab, right nostril.
[11] abbreviates: Second Analysis, Pre swab, left nostril.
Where [12] appears, read: Second Analysis, Pre swab, right nostril.
Setting [13] is: Third Analysis, Swab, left nostril.
The mark [14] stands for this setting: Third Analysis, Swab, right nostril.

Where “and” joins values, the source holds several entries; their conditions need not be identical. Identical values can stand only once. Entries after “also recorded” stand apart in the source; their conditions may differ.

Consider `OO` [H2O2, hydrogen peroxide], for which the “outcome of the Laser plus H2O2 arm (in words)” value in assay [1] (human subjects, 3% hydrogen peroxide in the nose for 120 seconds, then laser, day 1 and day 3) is given as “may have had some transient benefit in some of the patients, but no obvious long-term efficacy”.

For `OO` [Peroxide], the “s. aureus Average” value is 0 CFU (2×) and 20 CFU and 1 CFU in assay [2] (setting [5]); 0 CFU and 506 CFU and 146 CFU and 3272 CFU in assay [2] (setting [6]); 1 CFU and 53 CFU and 17 CFU and 124 CFU in assay [2] (setting [7]); 0 CFU and 29 CFU and 285 CFU and 3996 CFU in assay [2] (setting [8]); 0 CFU (3×) and 10 CFU in assay [2] (setting [9]); 0 CFU and 126 CFU and 5 CFU and 3589 CFU in assay [2] (setting [10]). Further, the “s. aureus Average” value in assay [2] (setting [11]) was 1 CFU and 206 CFU and 4 CFU and 12 CFU; in assay [2] (setting [12]), 1 CFU and 94 CFU and 257 CFU and 4373 CFU; in assay [2] (setting [13]) it was 1 CFU and 868 CFU and 28 CFU and 0 CFU; in assay [2] (setting [14]), 1 CFU and 586 CFU and 52 CFU and 3493 CFU. Moreover, the “MRSA Average” value was 0 CFU (2×) and 22 CFU and 1 CFU in assay [1] (setting [5]); 0 CFU (2×) and 455 CFU and 2752 CFU in assay [1] (setting [6]); 0 CFU (2×) and 63 CFU and 4 CFU in assay [1] (setting [7]); 0 CFU (2×) and 30 CFU and 4032 CFU in assay [1] (setting [8]); 0 CFU (3×) and 12 CFU in assay [1] (setting [9]); 0 CFU (2×) and 114 CFU and 3347 CFU in assay [1] (setting [10]). For the same molecule, the “MRSA Average” value was 0 CFU (2×) and 180 CFU and 17 CFU in assay [1] (setting [11]); 0 CFU (2×) and 90 CFU and 3099 CFU in assay [1] (setting [12]); 0 CFU (3×) and 827 CFU in assay [1] (setting [13]); 0 CFU (2×) and 563 CFU and 3648 CFU in assay [1] (setting [14]).

As for `COc1cc(Cc2cnc(N)nc2N)cc(OC)c1OC` [Trimethoprim], the “MRSA colony count, CONTROL (no laser), trimeth 2 ug/ml” value in the assay with MRSA [3] (no laser, agar with trimethoprim 2 ug/ml) was 145 and 213 and 198 and 240 and 220. Also, the “MRSA colony count, EXPERIMENTAL, trimeth 2 ug/ml” value in the assay with MRSA [3] (sub-lethal NIMELS laser, then plated on agar with trimethoprim 2 ug/ml) was 100 and 110.

Take Penicillin: the “Laser Effect (+Drug)” value came out at 0.28 in the assay on MRSA [4] (Group C4, 0.5 μg/ml penicillin G) and 0.18 with MRSA [4] (Group D4, 0.5 μg/ml penicillin G). Further, the “Drug Effect” value with MRSA [4] (Group C4, Cont (no laser)) was 0.75; in the assay with MRSA [4] (Group C4, Exp (laser treated)), 0.34; in the assay on MRSA [4] (Group D4, Cont (no laser)) it was 1.07; in the assay with MRSA [4] (Group D4, Exp (laser treated)) it was 0.31. In addition, the “AVG (CFU)” value in the assay on MRSA [4] (Group C4, Cont (no laser)) turned out to be 108.4 CFU; in the assay on MRSA [4] (Group C4, Exp (laser treated)) it was 30.4 CFU; in the assay on MRSA [4] (Group D4, Cont (no laser)) it was 132.8 CFU; with MRSA [4] (Group D4, Exp (laser treated)) it was 23.8 CFU. Also, the CFU/ml with MRSA [4] (Group C4, Cont (no laser)) was determined as 3.25E+08 CFU/ml; in the assay on MRSA [4] (Group C4, Exp (laser treated)), 9.12E+07 CFU/ml; with MRSA [4] (Group D4, Cont (no laser)), 3.98E+08 CFU/ml; with MRSA [4] (Group D4, Exp (laser treated)), 7.14E+07 CFU/ml. Further, the CFU with MRSA [4] (Group C4, Cont (no laser), replicate plates 1-5, 24 hrs 37° C.) is 106 CFU and 99 CFU and 102 CFU and 113 CFU and 122 CFU; with MRSA [4] (Group C4, Exp (laser treated), replicate plates 1-5), 25 CFU and 33 CFU (2×) and 19 CFU and 42 CFU; in the assay on MRSA [4] (Group D4, Cont (no laser), replicate plates 1-5, 24 hrs 37° C.), 101 CFU and 111 CFU and 138 CFU and 132 CFU and 182 CFU; in the assay with MRSA [4] (Group D4, Exp (laser treated), replicate plates 1-5), 14 CFU and 23 CFU and 22 CFU and 29 CFU and 31 CFU. Besides, the entries for the “Fold increase in antibiotic sensitivity” value in the assay on MRSA [4] (grouping C4) and with MRSA [4] (grouping D4) were 2.21 and 3.45, respectively. Besides, in the assay on MRSA [4] (sub-lethal NIMELS dosimetry, bar chart figure), the “synergy or potentiation with NIMELS in growth inhibition of MRSA colonies (in words)” value is listed as “synergistic effects; also recorded: potentiated by sub-lethal NIMELS dosimetry”. Besides, the “reversal of MRSA resistance in vitro by dual wavelength NOVEON laser (in words)” value in the assay on MRSA [4] (temperature levels not lethal to the organism) was “successful reversal of MRSA resistance”.

For the origin of these results see patent publication US8983257B2, “Therapeutic light delivery apparatus, method, and system” (Nomir Medical Technologies, Inc., priority 2002, dated 2015).
